US20080176862A1, “New Compounds 617” (ASTRAZENECA AB, priority 2006, published 2008)
Where a name gives a salt, the structure may show the parent alone.

These compounds were tested against T1, human β-Secretase (soluble part, AA1-AA460; sBACE-Fc) (Homo sapiens, UniProt P56817) (assay: TR-FRET assay). Conditions: substrate (Europium)CEVNLDAEFK(Qsy7) 100 nM, pH 4.5, 15 min at RT; read-out: IC50 (nM) in TR-FRET assay.
T1 construct: The soluble part of the human β-Secretase (AA1-AA460) was cloned into the ASP2-Fc10-1-IRES-GFP-neoK mammalian expression vector; made in house
T1 sequence (P56817 22-460): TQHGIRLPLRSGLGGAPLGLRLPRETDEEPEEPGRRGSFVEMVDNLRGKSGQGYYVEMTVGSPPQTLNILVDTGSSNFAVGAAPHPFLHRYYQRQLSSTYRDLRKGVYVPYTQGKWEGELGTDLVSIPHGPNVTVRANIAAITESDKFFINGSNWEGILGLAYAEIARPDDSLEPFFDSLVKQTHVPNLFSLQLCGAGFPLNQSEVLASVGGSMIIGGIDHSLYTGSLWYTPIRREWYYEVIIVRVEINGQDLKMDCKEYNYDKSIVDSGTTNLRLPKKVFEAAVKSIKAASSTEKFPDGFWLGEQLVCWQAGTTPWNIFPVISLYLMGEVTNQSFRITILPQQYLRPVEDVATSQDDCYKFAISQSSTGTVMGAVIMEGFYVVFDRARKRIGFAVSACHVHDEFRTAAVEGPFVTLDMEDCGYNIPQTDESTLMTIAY
Type: biochemical
Experimental: The enzyme used in the IGEN Cleavage-, Fluorescent-, TR-FRET- and BiaCore assays is described as follows:
The soluble part of the human β-Secretase (AA1-AA460) was cloned into the ASP2-Fc10-1-IRES-GFP-neoK mammalian expression vector. The gene was fused to the Fc domain of IgG1 (affinity tag) and stably cloned into HEK 293 cells. Purified sBACE-Fc is stored in Tris buffer, pH 9.2 and has a purity of 95%.
Enzyme was diluted to 6 μg/mL and the substrate (Europium)[…](Qsy7) to 200 nM in reaction buffer (NaAcetate, chaps, triton x-100, EDTA pH 4.5). Compounds were diluted to the desired concentration in dimethyl sulfoxide (final dimethyl sulfoxide concentration in assay is 5%). […] Enzyme (9 μL) and 1 μL of compound in dimethyl sulfoxide was added to the plate, mixed and pre-incubated for 10 min. Substrate (10 μL) was added and the reaction proceeded in the dark for 15 min at RT. The reaction was stopped with the addition of 7 μL NaAcetate, pH 9. The fluorescence of the product was measured on a Victor II plate reader with an excitation wavelength of 340 nm and an emission wavelength of 615 nm. […] The dimethyl sulfoxide control defined the 100% activity level and 0% activity was defined by exclusion of the enzyme (using reaction buffer instead).
With `CN1C(=O)C(c2cccc(OS(C)(=O)=O)c2)(c2ccc(F)c(-c3cc(Cl)cnc3F)c2)N=C1N` (centres unmarked) [Example 86, 3-{2-Amino-4-[3-(5-chloro-2-fluoropyridin-3-yl)-4-fluorophenyl]-1-methyl-5-oxo-4,5-dihydro-1H-imidazol-4-yl}phenyl methanesulfonate] the IC50 was 292 nM. Work on `CN1C(=O)C(c2cccc(OS(C)(=O)=O)c2)(c2ccc(F)c(-c3cncc(F)c3)c2)N=C1N` (centres unmarked) [Example 87, 3-{2-Amino-4-[4-fluoro-3-(5-fluoropyridin-3-yl)phenyl]-1-methyl-5-oxo-4,5-dihydro-1H-imidazol-4-yl}phenylmethanesulfonate] yielded an IC50 of 494 nM. Compound `CN1C(=O)C(c2ccc(OS(=O)(=O)C(F)(F)F)cc2)(c2ccc(F)c(-c3cncc(Cl)c3)c2)N=C1N` (centres unmarked) [Example 140, 4-{2-Amino-4-[3-(5-chloropyridin-3-yl)-4-fluorophenyl]-1-methyl-5-oxo-4,5-dihydro-1H-imidazol-4-yl}phenyl trifluoromethanesulfonate 0.75 acetate] has an IC50 of 116 nM. For `CCC(C)(C)c1ccc(S(=O)(=O)Oc2ccc(C3(c4ccc(F)c(-c5cccnc5)c4)N=C(N)N(C)C3=O)cc2)cc1` (centres unmarked) [Example 281, 4-[2-Amino-4-(4-fluoro-3-pyridin-3-ylphenyl)-1-methyl-5-oxo-4,5-dihydro-1H-imidazol-4-yl]phenyl 4-(1,1-dimethylpropyl)benzenesulfonate], the IC50 was 79 nM. `CN1C(=O)C(c2cccc(OS(=O)(=O)c3cn(C)cn3)c2)(c2ccc(F)c(Br)c2)N=C1N` (centres unmarked) [Example 232, 3-[2-Amino-4-(3-bromo-4-fluorophenyl)-1-methyl-5-oxo-4,5-dihydro-1H-imidazol-4-yl]phenyl 1-methyl-1H-imidazole-4-sulfonate] showed an IC50 of 594 nM. `CC(C)S(=O)(=O)Oc1cccc(C2(c3ccc(F)c(-c4cccnc4F)c3)N=C(N)N(C)C2=O)c1` (centres unmarked) [Example 104, 3-{2-Amino-4-[4-fluoro-3-(2-fluoropyridin-3-yl)phenyl]-1-methyl-5-oxo-4,5-dihydro-1H-imidazol-4-yl}phenyl propane-2-sulfonate] was tested, and the IC50 was 186 nM. Compound `CN1C(=O)C(c2ccc(OS(C)(=O)=O)cc2)(c2cncc(-c3cccnc3F)c2)N=C1N` (centres unmarked) [Example 22, 4-[2-amino-4-(2′-fluoro-3,3′-bipyridin-5-yl)-1-methyl-5-oxo-4,5-dihydro-1H-imidazol-4-yl]phenyl methanesulfonate 0.5 acetate] has an IC50 of 1650 nM. Work on `Cc1noc(C)c1S(=O)(=O)Oc1ccc(C2(c3ccc(F)c(-c4cncnc4)c3)N=C(N)N(C)C2=O)cc1` (centres unmarked) [Example 280, 4-[2-amino-4-(4-fluoro-3-pyrimidin-5-ylphenyl)-1-methyl-5-oxo-4,5-dihydro-1H-imidazol-4-yl]phenyl 3,5-dimethylisoxazole-4-sulfonate] yielded an IC50 of 234 nM. `CCN1C(=O)C(c2ccc(OS(C)(=O)=O)cc2)(c2ccc(F)c(-c3cccc(OC)c3)c2)N=C1N` (centres unmarked) [Example 163, 4-[2-Amino-4-(6-fluoro-3′-methoxybiphenyl-3-yl)-1-ethyl-5-oxo-4,5-dihydro-1H-imidazol-4-yl]phenyl methanesulfonate 0.25acetate] showed an IC50 of 395 nM. For `CCCS(=O)(=O)Oc1cccc(C2(c3ccc(F)c(-c4cccnc4)c3)N=C(N)N(C)C2=O)c1` (centres unmarked) [Example 97, 3-[2-Amino-4-(4-fluoro-3-pyridin-3-ylphenyl)-1-methyl-5-oxo-4,5-dihydro-1H-imidazol-4-yl]phenylpropane-1-sulfonate], the IC50 was 236 nM. For `COc1ccc(OC(F)(F)F)c(-c2cc(C3(c4ccc(OS(C)(=O)=O)cc4)N=C(N)N(C)C3=O)ccc2F)c1` (centres unmarked) [Example 168, 4-{2-Amino-4-[6-fluoro-5′-methoxy-2′-(trifluoromethoxy)biphenyl-3-yl]-1-methyl-5-oxo-4,5-dihydro-1H-imidazol-4-yl}phenyl methanesulfonate], the IC50 was 349 nM. `CN1C(=O)C(c2ccc(OS(=O)(=O)c3c(F)cccc3F)cc2)(c2ccc(F)c(-c3cncnc3)c2)N=C1N` (centres unmarked) [Example 278, 4-[2-Amino-4-(4-fluoro-3-pyrimidin-5-ylphenyl)-1-methyl-5-oxo-4,5-dihydro-1H-imidazol-4-yl]phenyl 2,6-difluorobenzenesulfonate] showed an IC50 of 65 nM. `CN1C(=O)C(c2cccc(OS(=O)(=O)C(F)(F)F)c2)(c2cccc(C3=CCCC3)c2)N=C1N` (centres unmarked) [Example 197, 3-[2-Amino-4-(3-cyclopent-1-en-1-ylphenyl)-1-methyl-5-oxo-4,5-dihydro-1H-imidazol-4-yl]phenyl trifluoromethanesulfonate hydrochloride] was tested, and the IC50 was 721 nM. `CN1C(=O)C(c2ccc(OS(=O)(=O)c3cn(C)cn3)cc2)(c2ccc(F)c(-c3cccnc3)c2)N=C1N` (centres unmarked) [Example 287, 4-[2-Amino-4-(4-fluoro-3-pyridin-3-ylphenyl)-1-methyl-5-oxo-4,5-dihydro-1H-imidazol-4-yl]phenyl 1-methyl-1H-imidazole-4-sulfonate] was tested, and the IC50 was 1020 nM. Compound `COc1ccc(S(=O)(=O)Oc2ccc(C3(c4ccc(F)c(-c5cncnc5)c4)N=C(N)N(C)C3=O)cc2)cc1` (centres unmarked) [Example 279, 4-[2-amino-4-(4-fluoro-3-pyrimidin-5-ylphenyl)-1-methyl-5-oxo-4,5-dihydro-1H-imidazol-4-yl]phenyl 4-methoxybenzenesulfonate] has an IC50 of 23 nM. For `CN1C(=O)C(c2ccc(OC(F)F)cc2)(c2ccc(F)c(-c3cc(C#N)cc(OS(C)(=O)=O)c3)c2)N=C1N` (centres unmarked) [Example 70, 5′-{2-Amino-4-[4-(difluoromethoxy)phenyl]-1-methyl-5-oxo-4,5-dihydro-1H-imidazol-4-yl}-5-cyano-2′-fluorobiphenyl-3-yl methanesulfonate hydrochloride], the IC50 was 2420 nM. With `COc1ccc(C#N)c(-c2cc(C3(c4cccc(OS(C)(=O)=O)c4)N=C(N)N(C)C3=O)ccc2F)c1` (centres unmarked) [Example 177, 3-[2-Amino-4-(2′-cyano-6-fluoro-5′-methoxybiphenyl-3-yl)-1-methyl-5-oxo-4,5-dihydro-1H-imidazol-4-yl]phenyl methanesulfonate hydrochloride] the IC50 was 100 nM. `CCCS(=O)(=O)Oc1cccc(C2(c3ccc(F)c(-c4cc(Cl)cnc4F)c3)N=C(N)N(C)C2=O)c1` (centres unmarked) [Example 95, 3-{2-Amino-4-[3-(5-chloro-2-fluoropyridin-3-yl)-4-fluorophenyl]-1-methyl-5-oxo-4,5-dihydro-1H-imidazol-4-yl}phenyl propane-1-sulfonate] gave an IC50 of 352 nM. For `CN1C(=O)C(c2cccc(OS(C)(=O)=O)c2)(c2ccc(F)c(-c3cc(Cl)cc(Cl)c3)c2)N=C1N` (centres unmarked) [Example 89, 3-[2-Amino-4-(3′,5′-dichloro-6-fluorobiphenyl-3-yl)-1-methyl-5-oxo-4,5-dihydro-1H-imidazol-4-yl]phenyl methanesulfonate], the IC50 was 207 nM. With `CCCS(=O)(=O)Oc1cccc(C2(c3ccc(F)c(-c4cc(Cl)cc(OC)c4)c3)N=C(N)N(C)C2=O)c1` (centres unmarked) [Example 99, 3-[2-Amino-4-(3′-chloro-6-fluoro-5′-methoxybiphenyl-3-yl)-1-methyl-5-oxo-4,5-dihydro-1H-imidazol-4-yl]phenyl propane-1-sulfonate] the IC50 was 330 nM. `CN1C(=O)C(c2cccc(OS(=O)(=O)c3ccc4c(c3)oc(=O)n4C)c2)(c2ccc(F)c(-c3cncnc3)c2)N=C1N` (centres unmarked) [Example 240, 3-[2-Amino-4-(4-fluoro-3-pyrimidin-5-ylphenyl)-1-methyl-5-oxo-4,5-dihydro-1H-imidazol-4-yl]phenyl 3-methyl-2-oxo-2,3-dihydro-1,3-benzoxazole-6-sulfonate] showed an IC50 of 20 nM. `CCCS(=O)(=O)Oc1cccc(C2(c3ccc(F)c(-c4cccc(OC)c4)c3)N=C(N)N(C)C2=O)c1` (centres unmarked) [Example 101, 3-[2-Amino-4-(6-fluoro-3′-methoxybiphenyl-3-yl)-1-methyl-5-oxo-4,5-dihydro-1H-imidazol-4-yl]phenyl propane-1-sulfonate] was tested, and the IC50 was 180 nM. For `COc1cccc(-c2ccnc(C3(c4ccc(OS(C)(=O)=O)cc4)N=C(N)N(C)C3=O)c2)c1` (centres unmarked) [Example 296, 4-{2-Amino-4-[4-(3-methoxyphenyl)pyridin-2-yl]-1-methyl-5-oxo-4,5-dihydro-1H-imidazol-4-yl}phenyl methanesulfonate 0.25 acetate], the IC50 was 1350 nM. In the case of `COc1ccc(OC)c(S(=O)(=O)Oc2ccc(C3(c4ccc(F)c(-c5cccnc5)c4)N=C(N)N(C)C3=O)cc2)c1` (centres unmarked) [Example 282, 4-[2-Amino-4-(4-fluoro-3-pyridin-3-ylphenyl)-1-methyl-5-oxo-4,5-dihydro-1H-imidazol-4-yl]phenyl 2,5-dimethoxybenzenesulfonate0.25 acetate], the IC50 is reported as 59 nM. For `CN1C(=O)C(c2cccc(OS(=O)(=O)c3ccc(-n4cccn4)cc3)c2)(c2ccc(F)c(-c3cncnc3)c2)N=C1N` (centres unmarked) [Example 238, 3-[2-Amino-4-(4-fluoro-3-pyrimidin-5-ylphenyl)-1-methyl-5-oxo-4,5-dihydro-1H-imidazol-4-yl]phenyl 4-(1H-pyrazol-1-yl)benzenesulfonate], the IC50 was 46 nM. For `CCC(C)(C)c1ccc(S(=O)(=O)Oc2cccc(C3(c4ccc(F)c(-c5cncnc5)c4)N=C(N)N(C)C3=O)c2)cc1` (centres unmarked) [Example 234, 3-[2-Amino-4-(4-fluoro-3-pyrimidin-5-ylphenyl)-1-methyl-5-oxo-4,5-dihydro-1H-imidazol-4-yl]phenyl 4-(1,1-dimethylpropyl)benzenesulfonate], the IC50 was 82 nM.
